Like-named read-outs stand apart in the source and are kept apart here.
Key:
[1] = tested on: Plasmodium falciparum 3D7-A10 parasites; test: Stage specificity assay (8-h exposure of synchronized stages, IC50^8h); format: cell-based; conditions: for IC50: Plasmodium falciparum
[2] = tested on: asynchronous 3D7-A10 parasite cultures; test: Standard 72-h exposure asexual blood stage susceptibility assay (IC50^72h); format: cell-based, Plasmodium falciparum; conditions: Plasmodium falciparum, 3D7, 72 h, read-out: Overall (72hr assay) Mean IC50 (IC50^72h)
[3] = tested on: 3D7-MR4 trophozoite parasite-infected RBCs; test: Metabolomic profiling (hydrophilic metabolite changes, UHPLC-MS); format: cell-based, Plasmodium falciparum

Cl.c1ccc2c(NCCCCCCNc3c4c(nc5ccccc35)CCCC4)c3c(nc2c1)CCCC3 [MMV019555]
Ratio lowest IC50 8hr/IC50 72hr ([1]; 3D7-A10): 2.4 | IC50 ([1]; 3D7, read-out: Early rings Mean IC50 (IC50^8h)): 755 nM | IC50 ([1]; 3D7, read-out: Early trophozoites Mean IC50 (IC50^8h)): 81.4 nM | IC50 ([1]; 3D7, read-out: Late rings Mean IC50 (IC50^8h)): 788 nM | IC50 ([1]; 3D7, read-out: Late trophozoites Mean IC50 (IC50^8h)): 110 nM | IC50 ([1]; 3D7, read-out: Schizonts Mean IC50 (IC50^8h)): 349 nM | Stage of peak activity (Figure 6) ([1]; period when the parasite was most susceptible (lowest IC50^8h)): trophozoites | Peak Activity (Table S1) ([1]; stage(s) with the lowest IC50^8h): Trophs | IC50 [2]: 33.3 nM | peptide levels (hemoglobin catabolism signature) ([3]; 10 × IC50^72h, 2.5 hr, trophozoites): decreased peptide levels | Log2(fold changes) 3-phosphoglycerate ([3]; metabolite 3-phosphoglycerate, log2 fold change): -0.7704 | Log2(fold changes) 4-Pyridoxic acid ([3]; metabolite 4-Pyridoxic acid, log2 fold change): -0.0064 | Log2(fold changes) 4-aminobutyrate ([3]; metabolite 4-aminobutyrate, log2 fold change): -0.0746 | Log2(fold changes) 4-phosphopantetheine ([3]; metabolite 4-phosphopantetheine, log2 fold change): 0.0000 | Log2(fold changes) 4-phosphopantothenate ([3]; metabolite 4-phosphopantothenate, log2 fold change): -0.0563 | Log2(fold changes) 5-aminopentanoic acid ([3]; metabolite 5-aminopentanoic acid, log2 fold change): 0.0000 | Log2(fold changes) 5-methyl-THF ([3]; metabolite 5-methyl-THF, log2 fold change): 0.0000 | Log2(fold changes) 5-phosphoribosyl-1-pyrophosphate ([3]; metabolite 5-phosphoribosyl-1-pyrophosphate, log2 fold change): 0.0000 | Log2(fold changes) 6-phospho-D-gluconate ([3]; metabolite 6-phospho-D-gluconate, log2 fold change): -0.1925 | Log2(fold change) HVDD ([3]; metabolite HVDD): -3.3896 | Log2(fold change) Hydroxyisocaproic acid ([3]; metabolite Hydroxyisocaproic acid): 0.0000 | Log2(fold change) IDP ([3]; metabolite IDP): 0.0000 | Log2(fold change) IMP ([3]; metabolite IMP): 0.2158 | Log2(fold change) Inositol ([3]; metabolite Inositol): 0.0000 | Log2(fold change) Isopentyl-PP ([3]; metabolite Isopentyl-PP): 0.0000 | Log2(fold change) L-arginino-succinate ([3]; metabolite L-arginino-succinate): 2.1877 | Log2(fold change) LD ([3]; metabolite LD): -0.1309 | Log2(fold change) Myristoyl/tetradecanoyl-CoA ([3]; metabolite Myristoyl/tetradecanoyl-CoA): 0.0000 | Log2(fold change) N-Acetyl-L-alanine ([3]; metabolite N-Acetyl-L-alanine): -0.6973 | Log2(fold change) N-acetyl-L-ornithine ([3]; metabolite N-acetyl-L-ornithine): -2.1230 | Log2(fold change) N-acetyl-glucosamine-1/6-phosphate ([3]; metabolite N-acetyl-glucosamine-1/6-phosphate): -0.2838 | Log2(fold change) N-acetyl-glutamate ([3]; metabolite N-acetyl-glutamate): 0.3598 | Log2(fold change) N-acetyl-glutamine ([3]; metabolite N-acetyl-glutamine): -3.0977 | Log2(fold change) N-carbamoyl-L-aspartate ([3]; metabolite N-carbamoyl-L-aspartate): -1.7500 | Log2(fold change) NAD+ ([3]; metabolite NAD+): -0.0354 | Log2(fold change) NADH ([3]; metabolite NADH): 0.0000 | Log2(fold change) NADP+ ([3]; metabolite NADP+): 0.1571 | Log2(fold change) NADPH ([3]; metabolite NADPH): 0.0000 | Log2(fold change) O-acetyl-L-serine ([3]; metabolite O-acetyl-L-serine): 0.0000 | Log2(fold change) Octoluse 8/1P ([3]; metabolite Octoluse 8/1P): 0.0000 | Log2(fold change) Octoluse Bisphosphate ([3]; metabolite Octoluse Bisphosphate): 0.2948 | Log2(fold change) PD ([3]; metabolite PD): -3.7912 | Log2(fold change) PE ([3]; metabolite PE): -2.1499 | Log2(fold change) PEE ([3]; metabolite PEE): -2.7511 | Log2(fold change) PEEK ([3]; metabolite PEEK): -0.8070 | Log2(fold change) PVNF ([3]; metabolite PVNF): -5.1804 | Log2(fold change) Pyroglutamic acid ([3]; metabolite Pyroglutamic acid): 0.0000 | Log2(fold change) Pyrophosphate ([3]; metabolite Pyrophosphate): 0.0000 | Log2(fold change) Ribose-5-phosphate ([3]; metabolite Ribose-5-phosphate): 0.0000 | Log2(fold change) S-adenosyl-L-homocysteine ([3]; metabolite S-adenosyl-L-homocysteine): -0.6013 | Log2(fold change) S-adenosyl-L-methioninamine ([3]; metabolite S-adenosyl-L-methioninamine): 0.0000 | Log2(fold change) S-adenosyl-L-methionine ([3]; metabolite S-adenosyl-L-methionine): 0.0000 | Log2(fold change) S-methyl-5'-thioadenosine ([3]; metabolite S-methyl-5'-thioadenosine): 0.0000 | Log2(fold change) SD ([3]; metabolite SD): -1.1672 | Log2(fold change) SDL ([3]; metabolite SDL): -3.6117 | Log2(fold change) SID ([3]; metabolite SID): -6.9124 | Log2(fold change) Sedoheptulose bisphosphate ([3]; metabolite Sedoheptulose bisphosphate): 0.7315 | Log2(fold change) Thiamine pyrophosphate ([3]; metabolite Thiamine pyrophosphate): 0.0000 | Log2(fold changes) UDP-D-glucose ([3]; metabolite UDP-D-glucose, log2 fold change): 0.2602 | Log2(fold changes) UDP-D-glucuronate ([3]; metabolite UDP-D-glucuronate, log2 fold change): 0.1434 | Log2(fold changes) UDP-N-acetyl-glucosamine ([3]; metabolite UDP-N-acetyl-glucosamine, log2 fold change): 0.1146 | Log2(fold changes) UDP ([3]; metabolite UDP, log2 fold change): 0.8739 | Log2(fold changes) UMP ([3]; metabolite UMP, log2 fold change): -0.0547 | Log2(fold changes) UTP ([3]; metabolite UTP, log2 fold change): -0.1611 | Log2(fold change) hydroxyphenylpyruvate ([3]; metabolite hydroxyphenylpyruvate): 0.0000 | Log2(fold change) hydroxyproline/Aminolevulinate ([3]; metabolite hydroxyproline/Aminolevulinate): 0.0631 | Log2(fold change) hypoxanthine ([3]; metabolite hypoxanthine): 0.0000 | Log2(fold change) indole ([3]; metabolite indole): 0.0000 | Log2(fold change) inosine ([3]; metabolite inosine): -0.4951 | Log2(fold change) isoleucine ([3]; metabolite isoleucine): 0.1119 | Log2(fold change) lactate ([3]; metabolite lactate): 0.0000 | Log2(fold change) leucine ([3]; metabolite leucine): -0.0578 | Log2(fold change) lysine ([3]; metabolite lysine): 0.0000 | Log2(fold change) malate ([3]; metabolite malate): -0.8281 | Log2(fold change) maleic acid ([3]; metabolite maleic acid): -0.8184 | Log2(fold change) methionine ([3]; metabolite methionine): 0.4693 | Log2(fold change) myo-inositol ([3]; metabolite myo-inositol): 0.0000 | Log2(fold change) nicotinamide mononucleotide ([3]; metabolite nicotinamide mononucleotide): 0.0000 | Log2(fold change) nicotinate ([3]; metabolite nicotinate): -0.1129 | Log2(fold change) ornithine ([3]; metabolite ornithine): 0.0000 | Log2(fold change) orotate ([3]; metabolite orotate): -0.7791 | Log2(fold change) orotidine-5'-phosphate ([3]; metabolite orotidine-5'-phosphate): -1.4071 | Log2(fold change) oxaloacetate ([3]; metabolite oxaloacetate): 0.0000 | Log2(fold change) p-aminobenzoate ([3]; metabolite p-aminobenzoate): 0.0000 | Log2(fold change) p-hydroxybenzoate ([3]; metabolite p-hydroxybenzoate): 0.0000 | Log2(fold change) pantothenate ([3]; metabolite pantothenate): 0.0969 | Log2(fold change) phenylalanine ([3]; metabolite phenylalanine): -0.1076 | Log2(fold change) phenylpyruvate ([3]; metabolite phenylpyruvate): 0.0000 | Log2(fold change) phosphoenolpyruvate ([3]; metabolite phosphoenolpyruvate): -0.6196 | Log2(fold change) prephenate ([3]; metabolite prephenate): 0.0000 | Log2(fold change) proline ([3]; metabolite proline): -0.3102 | Log2(fold change) pyridoxine ([3]; metabolite pyridoxine): 0.0000 | Log2(fold change) pyruvate ([3]; metabolite pyruvate): -0.3424 | Log2(fold change) riboflavin ([3]; metabolite riboflavin): 0.1087 | Log2(fold change) ribose ([3]; metabolite ribose): 0.0000 | Log2(fold change) ribose-phosphate ([3]; metabolite ribose-phosphate): -0.8253 | Log2(fold change) ribulose-5-phosphate ([3]; metabolite ribulose-5-phosphate): -0.7229 | Log2(fold change) serine ([3]; metabolite serine): 0.0219 | Log2(fold change) sn-glycerol-3-phosphate ([3]; metabolite sn-glycerol-3-phosphate): -0.8632 | Log2(fold change) succinate/Methylmalonic acid ([3]; metabolite succinate/Methylmalonic acid): 0.2169 | Log2(fold change) succinyl-CoA/methylmalonyl-CoA ([3]; metabolite succinyl-CoA/methylmalonyl-CoA): 0.0000 | Log2(fold change) taurine ([3]; metabolite taurine): 0.0000 | Log2(fold change) thiamine ([3]; metabolite thiamine): -0.8248 | Log2(fold change) threonine/homoserine ([3]; metabolite threonine/homoserine): -0.3688 | Log2(fold change) thymidine ([3]; metabolite thymidine): 0.0000 | Log2(fold changes) thymine ([3]; metabolite thymine, log2 fold change): 0.0000 | Log2(fold changes) trehalose-6-Phosphate ([3]; metabolite trehalose-6-Phosphate, log2 fold change): 0.0000 | Log2(fold changes) tryptophan ([3]; metabolite tryptophan, log2 fold change): -0.0448 | Log2(fold changes) tyrosine ([3]; metabolite tyrosine, log2 fold change): 0.2358 | Log2(fold changes) uridine ([3]; metabolite uridine, log2 fold change): 0.0000

Reference: article PMC7031696 (Cell chemical biology, 2019)
